Measured values: article PMC8874959 (Viruses, 2022)
Converted amounts (≈) assume the structure as drawn. “Also recorded” adds a separate entry of the source. Like-named read-outs stand apart in the source and are kept apart here.

Columns and labels:
in vitro [1] = assay type: cell-based; details: African green monkey
SARS-CoV-2 [2] = details: cited from earlier work
[3] = cited from earlier work; for Plasma protein binding: Table S3, ref DrugBank, PubChem, Warhurst, et al JAC 2003, Schroeder and Gerber Toxicol. Rep. 2014
[4] = ref DrugBank; PubChem; Warhurst, et al JAC 2003; Schroeder and Gerber Toxicol. Rep. 2014; cited from earlier work
in vitro [5] = assay type: cell-based; details: human
SARS-CoV-2 Gamma strain = assay: microbe, parasite or virus in culture; assay type: cell-based; details: Severe acute respiratory syndrome coronavirus 2; Calu-3, Gamma strain, MOI 0.1, 48 hpi
[6] = tested on: SARS-CoV-2-infected monocytes; assay type: cell-based, human
SARS-CoV-2 [7] = assay type: cell-based
SARS-CoV-2 [8] = details: Vero-E6, cited from earlier work
tuberculosis = details: cited from earlier work
[9] = cited from earlier work; for Cmax: human plasma
[10] = PBPK input, cited from earlier work
SARS-CoV-2 [11] = assay type: cell-based; remark: listed apart in the source

SMILES	Antiviral activity in SARS-CoV-2-infected Calu-3 cells (SARS-CoV-2 [2])	Plasma protein binding [3]	LogP [4]	pKa1 [4]	pKa2 [4]	pKa3 [4]	CC50 (in vitro [5]) [µM]	CC50 (in vitro [1]) [µM]	EC50 (SARS-CoV-2 Gamma strain) [µM]	EC90 (SARS-CoV-2 Gamma strain) [µM]	other results
CCN(CC)CCCC(C)Nc1ccnc2cc(Cl)ccc12 (stereo not drawn) [Chloroquine]	inactive; also recorded: lacks antiviral activity	46-74%	–	–	–	–	–	–	–	–	CC50 at 72 h (in vitro [1]; Vero E6, 72 h): 259 ± 5 µM
CCN(CCO)CCCC(C)Nc1ccnc2cc(Cl)ccc12 (stereo not drawn) [Hydroxychloroquine, hydroxychloroquine]	lacks antiviral activity	50%	4.12	< 4.0	8.3	9.7	–	–	–	–	Lipinski’s rule of five [4]: Yes; Physiological charge [4]: +2
OC(c1cc(C(F)(F)F)nc2c(C(F)(F)F)cccc12)C1CCCCN1 (stereo not drawn) [Mefloquine]	–	> 98%	3.90	lower than 3.0	9.46	13.79	19.9 ± 0.06	9.2 ± 0.3	1.2 ± 0.4	2.7 ± 0.3	Virus-induced IL-6 levels [6]: reduce the augmentation of these cytokines in a donor-dependent manner; Virus-induced TNF-α levels [6]: reduce the augmentation of these cytokines in a donor-dependent manner; Virus-induced monocyte death (LDH) [6]: reduce virus-induced monocyte death; Number of viral particles in the endosomes (SARS-CoV-2 [7]): reduced the number of viral particles in the endosomes; EC90 (SARS-CoV-2 [8]; ref 8 (supplement)): 3.0643 µg/mL (≈ 8.1 µM); EC90 (SARS-CoV-2 [8]; ref 9 (supplement)): 2.4552 µg/mL (≈ 6.49 µM); EC90 (SARS-CoV-2 [8]; ref 10 (supplement)): 2.5138 µg/mL (≈ 6.64 µM); Minimal inhibitory concentration (tuberculosis): 20 µM (≈ 7.57 µg/mL); Half-life [9]: measured in weeks; Cmax ([9]; equivalent): 8.67 µM; Cmax [9]: 3279 ng/mL; Protein binding ([3]; PBPK input, ref 12 (supplement)): 98%; Half-life ([10]; ref 11 (supplement)): 2-4 weeks; Intrinsic clearance ([10]; ref 12 (supplement)): 10.47 L/h; Log P ([10]; ref 12 (supplement)): 3.87; pKa (diprotic base) ([10]; ref 12 (supplement)): 8.7; Water solubility [4]: 38 µg/mL
CCC(CC)COC(=O)[C@H](C)N[P@](=O)(OC[C@H]1O[C@@](C#N)(c2ccc3c(N)ncnn23)[C@H](O)[C@@H]1O)Oc1ccccc1 [Remdesivir]	–	–	–	–	–	–	480 ± 20	512 ± 30	0.01 ± 0.008	0.2 ± 0.02	Improvement of remdesivir's efficiency (SARS-CoV-2 [11]): 200 fold
